Key:
Assay type in all cases: physicochemical
[1] = Dynamic vapour sorption (DVS), adsorption/desorption cycles between 0 and 90% RH
Description: Each sample was placed into a sample pan and loaded into the DVS system. An initial weight reading was taken. The sample was then exposed to an atmosphere with a relative humidity (RH) of 0% to dry the sample and a dry weight reading taken. The sample was exposed to an adsorption/desorption cycle between 0 and 90% RH in 10% RH intervals. The change in weight data was fitted to an exponential expression that was used to automatically determine the end point of each stage, which then triggers the next increase/decrease in relative humidity. For the DVS traces, the stepped lines represent the relative humidity (RH) level in the Chamber. The curved line represents the weight change in the sample. The RH was controlled automatically and changes once the rate of change in weight of the sample is small.

[2] = Storage stability at 25° C./60% relative humidity; details: 25° C./60% RH
Protocol: Samples of Form II renzapride hydrochloride hydrate were placed in storage under conditions of 25° C./60% relative humidity.

[3] = Particle size distribution; details: 5 kg batch
Protocol: The Particle Size Distribution (PDS) of renzapride is measured according to the method detailed below. [table] • Vibration feed rate: 40% • Air pressure: 3.5 Bar Single measurement of each batch performed in triplicate.

[4] = Intrinsic dissolution rate (IDR) of compressed discs in a static dissolution system
Protocol: The samples were prepared as discs. Each disc was prepared by compressing the sample for 5 minutes at 2 tons of pressure. Each disc was transferred to a static dissolution system, whereby one surface of the disc is exposed to the dissolution medium. Six discs were prepared from each batch of material for duplicate intrinsic dissolution rate (IDR) determinations at pHs 2.2, 4.0 and 7.0. Dissolution samples (0.8 ml) were withdrawn at 5 minute intervals up to 60 minutes and samples were analysed. The amount of drug released (mg) is divided by the surface area of the disc (0.5 cm^2) to obtain an amount per unit area (mg cm^−2). The average of the duplicate determinations is plotted as a function of time (minutes). The IDR (mg cm^−2 minutes^−1) is given by the gradient (determined by linear regression) over the linear range of the release profile. When the dissolution into solution is deemed independent of pH, a pH independent IDR is calculated. The pH independent IDR is calculated by averaging the data for each time point at all of the pHs studied and calculating the linear regression on at least the first 5 data points. All IDR values are reported with the error encompassing the upper and lower 95% confidence limits of the linear regression. Linear regression analysis of the IDR data used all of the data points, as the release profiles are linear.

- moisture taken up at 90% RH (DVS) ([1]; chamber at 90% RH): ~9.5 % (w/w)
- uptake in moisture at 10% RH (DVS) ([1]; exposure to 10% RH, initial uptake): ca. 9 % (w/w)
- Description ([2]; t = 0 months): White
- Water content (by Karl Fisher) ([2]; t = 0 months): 8.9%(w/w)
- Description ([2]; t = 6 months): White
- Water content (by Karl Fisher) ([2]; t = 6 months): 8.6%(w/w)
- Description ([2]; t = 12 months): White
- Water content (by Karl Fisher) ([2]; t = 12 months): 8.8%(w/w)
- Description ([2]; t = 18 months): White
- Water content (by Karl Fisher) ([2]; t = 18 months): 8.8%(w/w)
- Description ([2]; t = 24 months): White
- Water content (by Karl Fisher) ([2]; t = 24 months): 8.8%(w/w)
- Span = (d(0.9) − d(0.1))/d(0.5) [3]: 2.1
- d (0.1) [3]: 11.5 μm
- d(0.5) [3]: 47.1 μm
- d(0.9) [3]: 109.0 μm
- IDR independent (pH independent IDR) ([4]; data averaged over all pHs studied, error = 95% confidence limits): 5.7 ± 0.3 mg/min/cm^2
- IDR pH 2.2 ([4]; pH 2.2, error = 95% confidence limits of linear regression): 5.5 ± 0.2 mg/min/cm^2
- IDR pH 4.0 ([4]; pH 4.0, error = 95% confidence limits of linear regression): 5.7 ± 0.2 mg/min/cm^2
- IDR pH 7.0 ([4]; pH 7.0, error = 95% confidence limits of linear regression): 5.9 ± 0.3 mg/min/cm^2
SMILES: COc1cc(N)c(Cl)cc1C(=O)NC1CCN2CCCC1C2.Cl (centres unmarked) [Form II, renzapride hydrochloride hydrate]

Reference: US20050209271A1, “Form of renzapride hydrochloride hydrate and uses thereof” (priority 2003, published 2005)
